Tests used:
SH-SY5Y cells [1] = test: Neuroprotective effects against CuSO4 in SH-SY5Y cells (MTT); type: cell-based, human; conditions: 24 h, CuSO4 150 μM
Description: (§1) SH-SY5Y cells were seeded in a 96-well plate at 2 × 10^4 cells/well, incubated for 24 h and then […]
presence of CuSO4 (150 µM) at 37 °C in 5 % CO2. Cells were also treated with compound 1 (1 µM) for 24 h in the presence of lactacystin (5 µM). At the end of the treatment, the cell viability, in terms of mitochondrial metabolic function, was evaluated by the reduction of 3-(4,5-dimethyl-2-thiazolyl)- 2,5-diphenyl-2H-tetrazolium bromide (MTT) to its insoluble formazan. Briefly, the treatment was replaced with MTT in HBSS [0.5 mg/mL] for 2 h at 37°C in 5% CO2. After washing with HBSS, formazan crystals were dissolved in isopropanol. The amount of formazan was measured (570 nm, reference filter 690 nm) using a multilabel plate reader (VICTOR™ X3, PerkinElmer, Waltham, MA, USA).[10] Data are reported as mean ± SEM of three independent experiments. The neurotoxicity was expressed as a percentage of control cells and calculated by the formula: 100 – ((absorbance of treated

GSK-3β protein = GSK-3β protein (Homo sapiens, UniProt P49841); test: GSK-3β inhibition in vitro assay (Kinase-Glo luminescent); type: biochemical; design: purchased Millipore (Millipore Iberica S.A.U.); conditions: ATP 1 μM, GSM substrate 25 μM, 30 min at 37 °C; mean of at least two determinations in duplicate; read-out: IC50 ± SEM, GSK-3β activity
Sequence of GSK-3β protein (P49841 whole entry): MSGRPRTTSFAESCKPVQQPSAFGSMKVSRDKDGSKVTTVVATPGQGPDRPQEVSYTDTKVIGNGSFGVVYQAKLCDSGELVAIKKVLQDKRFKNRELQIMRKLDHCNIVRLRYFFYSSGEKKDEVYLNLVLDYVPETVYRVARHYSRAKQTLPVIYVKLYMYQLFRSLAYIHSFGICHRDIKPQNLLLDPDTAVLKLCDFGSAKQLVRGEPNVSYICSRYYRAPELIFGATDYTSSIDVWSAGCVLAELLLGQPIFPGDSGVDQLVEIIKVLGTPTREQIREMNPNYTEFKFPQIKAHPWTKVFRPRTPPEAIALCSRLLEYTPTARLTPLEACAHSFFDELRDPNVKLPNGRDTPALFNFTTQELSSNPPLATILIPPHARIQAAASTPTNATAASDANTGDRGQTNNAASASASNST
From the text: N-(2-(2-(2-((2-(2,6-dioxopiperidin-3-yl)-1,3-dioxoisoindolin-4-yl)amino)ethoxy)ethoxy)ethyl)- 4-((2-(naphthalen-1-yl)-3,5-dioxo-1,2,4-thiadiazolidin-4-yl)methyl)benzamide (4). Synthesized […]
GSK-3β inhibition in vitro assay. Human recombinant GSK-3β, prephosphorylated polypeptide substrate and white 96-well plates were purchased from Millipore (Millipore Iberica S.A.U.). Kinase-Glo Luminescent Kinase Assay was obtained from Promega (Promega Biotech Iberica, SL).
Adenosinetriphosphate (ATP) and all other reagents were from Sigma-Aldrich. Assay buffer contained 50 mM 4-(2-hydroxyethyl)-1- piperazineethanesulfonic acid (HEPES) (pH 7.5), 1 mM ethylenediaminetetraacetic acid (EDTA), 1 mM ethylene glycol tetraacetic acid (EGTA), and 15 mM magnesium acetate. The in solution experiments for GSK-3β inhibition analysis were performed by following the method developed by Baki et al.[1] In a typical assay, 10 μL of test compound (dissolved […]
in DMSO at 1 mM concentration and diluted in advance in assay buffer to the desired concentration) and 10 μL (20 ng) of enzyme were added to each well in presence of 20 μL of assay buffer containing […]
After a 30 min incubation time at 37 °C, the enzymatic reaction was stopped by adding 40 μL of Kinase-Glo reagent. Glow-type luminescence was recorded after 10 min using a Victorx3 (PerkinElmer Waltham, MA, USA) plate […]
inhibitory activities were calculated based on maximal kinase (average positive) and luciferase activities (average negative) measured in the absence of inhibitor and in the presence of reference […]
μM), respectively. The linear regression parameters were determined and the IC 50 extrapolated by GraphPad software (version 5.0; GraphPad Software, La Jolla, CA, USA).

PAMPA-BBB permeation = type: in vitro ADME
Description: 11. PAMPA BBB permeation studies.
Prediction of the brain penetration was evaluated using a parallel artificial membrane permeability assay (PAMPA).[12] Ten commercial drugs, PBS at pH 7.4, EtOH, and dodecane were purchased from Sigma- Aldrich, Acros organics, Merck, and Fluka. The porcine polar brain lipid (PBL) was from Avanti Polar Lipids. The donor plate was a 96-well filtrate plate (Multiscreen® IP Sterile Plate PDVF […]
both from Millipore. Filter PDVF membrane units (diameter 30 mm, pore size 0.45 µm) from Symta were used to filter the samples. A 96-well plate UV reader (Biteck Instruments, Synergy H4 Hibrid Reader) was used for the UV measurements.
12 mg of promazine) were dissolved in 1 mL of EtOH. 100 µL of this compound stock solution were taken and 1400 µL of EtOH and 3500 µL of PBS were added to reach 30% of EtOH concentration in the experiment. These solutions were filtered. The acceptor 96-well microplate was filled with 180 µL of PBS/EtOH (70/30). The donor 96-well plate was coated with 4 µL of porcine brain lipid in dodecane (20 mg mL-1) and after 5 min, 180 µL of each compound solution was added. 1 mg of […]
of EtOH and 1.4 mL of PBS, filtered and then added to the donor 96-well plate. Then the donor plate was carefully put on the acceptor plate to form a “sandwich”, which was left undisturbed for 2 h and 45 min at 25 °C. During this time the compounds diffused from the donor plate through the brain lipid membrane into the acceptor plate. After incubation, the donor plate was removed. UV plate reader determined the concentration of compounds and commercial drugs in the acceptor and the donor plates. Every sample was analyzed at three to five wavelengths (between 200 and 500 nm), in 3 wells and in two independent runs. Results are given as the mean and the average of the two runs is reported. Quality control compounds (previously mentioned) of known BBB permeability were included in each experiment to validate the analysis set.

SH-SY5Y cells [2] = test: Cytotoxicity in SH-SY5Y cells (MTT); type: cell-based, human
Description: Human neuronal SH-SY5Y cells (Sigma-Aldrich, St. Louis, MO, USA) were routinely grown in Dulbecco’s modified Eagle’s Medium supplemented with 10% fetal bovine serum, 2 mM l-glutamine, 50 U/mL penicillin, and 50 μg/mL streptomycin at 37 °C in a humidified incubator with […]
Determination of cytotoxicity
as §1
for 24 h at 37°C in 5% CO2. The cell viability, in terms of mitochondrial metabolic function, was evaluated by the reduction of 3-(4,5-dimethyl-2-thiazolyl)-2,5-diphenyl-2H-tetrazolium bromide […]
(MTT) to its insoluble formazan. Briefly, the treatment was replaced with MTT in HBSS [0.5 mg/mL] for 2 h at 37°C in 5% CO2. After washing with HBSS, formazan crystals were dissolved in isopropanol. The amount of formazan was measured (570 nm, reference filter 690 nm) using a multilabel plate reader (VICTOR™ X3, PerkinElmer, Waltham, MA, USA). Data are expressed as mean of three independent experiments. […]

[3] = classified from experimental Pe

Question: For `O=C(Cn1cc(C2=C(c3ccc(Cl)cc3Cl)C(=O)NC2=O)c2ccccc21)NCCCOCCCCOCCCNc1cccc2c1C(=O)N(C1CCC(=O)NC1=O)C2=O` (centres unmarked) [Compound 1], which “neurotoxicity induced by CuSO4” value (SH-SY5Y cells [1]; 1 μM, MTT) is on record?
Answer: The value was “significantly counteracted the neurotoxicity induced by CuSO4”.

Question: And the “neuroprotective effect against CuSO4 in the presence of lactacystin” value (SH-SY5Y cells [1]; lactacystin 5 μM)?
Answer: Its value is “abolished by lactacystin”.

Question: And the IC50 (GSK-3β protein)?
Answer: The IC50 was 833 ± 62 nM.

Question: What about the Papp at 2.75 h (PAMPA-BBB permeation; PAMPA, pH 7.4, PBS:EtOH (70:30), 2 h 45 min at 25 °C, porcine brain lipid, mean ± SD of two independent experiments, read-out: Pe (experimental data)) of the same molecule?
Answer: The Papp at 2.75 h was 15.3 ± 1.12 ×10⁻⁶ cm/s.

Question: And the “BBB permeability classification” value (PAMPA-BBB permeation; [3])?
Answer: Its value is “CNS±”.

Question: What about the “Prediction (penetration in the CNS)” value (PAMPA-BBB permeation; [3]) of the same molecule?
Answer: The value was “CNS +/- (CNS +/- (orange) for 15.78 × 10 −6 cm s−1 > Pe > 11.11 × 10 –6 cm s−1)”.

Question: And the “concentration at which cytotoxicity was shown” value (SH-SY5Y cells [2]; MTT, 24 h treatment, 1.25–40 μM)?
Answer: Its value is “higher than 20 μM”.

Question: And the “nontoxic up to (neuronal cells)” value (SH-SY5Y cells [2]; neuronal cells)?
Answer: Its value is “up to 20 μM”.

Source: PMC10251479, “PROTAC-Induced Glycogen Synthase Kinase 3β Degradation as a Potential Therapeutic Strategy for Alzheimer’s Disease” (ACS Chemical Neuroscience, 2023)
